Laboratory results: ChEMBL document CHEMBL4725424, “The Resurrection of Phenotypic Drug Discovery” (ACS Med Chem Lett, 2020)

Columns and labels:
CDK3/Cyclin E = CDK3/Cyclin E (Homo sapiens, UniProt Q00526); assay: Inhibition of CDK3/cyclinE (unknown origin); assay type: protein-complex assay
[1] = Inhibition of CDK8/cyclinD3 (unknown origin); design: species or system Homo sapiens
CDK9/cyclin T1 = CDK9/cyclin T1 (Homo sapiens, UniProt P50750); assay: Inhibition of CDK9/cyclinT1 (unknown origin); assay type: protein-complex assay
CDK9/cyclin T1, sequence (O60563 whole entry): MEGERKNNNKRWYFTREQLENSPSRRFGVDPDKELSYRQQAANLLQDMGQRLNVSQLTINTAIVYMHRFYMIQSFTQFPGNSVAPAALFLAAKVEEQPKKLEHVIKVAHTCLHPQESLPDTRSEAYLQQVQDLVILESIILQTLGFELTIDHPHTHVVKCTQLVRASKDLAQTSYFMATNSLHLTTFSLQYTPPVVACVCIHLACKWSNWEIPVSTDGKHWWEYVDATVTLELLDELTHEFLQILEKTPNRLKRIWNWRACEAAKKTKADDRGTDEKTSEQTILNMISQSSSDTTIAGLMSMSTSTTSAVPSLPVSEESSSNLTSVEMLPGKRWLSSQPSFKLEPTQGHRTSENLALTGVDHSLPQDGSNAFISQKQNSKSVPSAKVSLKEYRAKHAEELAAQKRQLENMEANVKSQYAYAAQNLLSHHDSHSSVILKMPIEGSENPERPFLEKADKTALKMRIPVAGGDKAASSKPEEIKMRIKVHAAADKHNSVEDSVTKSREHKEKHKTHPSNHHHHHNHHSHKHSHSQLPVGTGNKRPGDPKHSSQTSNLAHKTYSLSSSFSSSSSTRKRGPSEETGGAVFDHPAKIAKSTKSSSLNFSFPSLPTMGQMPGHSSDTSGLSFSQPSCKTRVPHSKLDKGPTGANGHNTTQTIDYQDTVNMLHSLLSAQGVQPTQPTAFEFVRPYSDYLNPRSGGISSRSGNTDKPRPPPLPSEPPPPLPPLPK
CDK9/cyclin T1, sequence (P50750 whole entry): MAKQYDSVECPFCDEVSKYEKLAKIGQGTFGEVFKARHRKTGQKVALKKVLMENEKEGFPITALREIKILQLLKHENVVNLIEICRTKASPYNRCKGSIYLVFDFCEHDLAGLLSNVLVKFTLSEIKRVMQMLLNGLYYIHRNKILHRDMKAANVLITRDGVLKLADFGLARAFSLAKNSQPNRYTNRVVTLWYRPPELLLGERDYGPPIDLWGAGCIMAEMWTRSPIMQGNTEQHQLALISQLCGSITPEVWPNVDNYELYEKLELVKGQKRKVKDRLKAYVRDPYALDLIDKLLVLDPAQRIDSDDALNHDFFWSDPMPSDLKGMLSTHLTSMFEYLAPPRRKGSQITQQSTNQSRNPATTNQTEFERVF

[2] = molecular target: T1, Cyclin-dependent kinase 5/CDK5 activator 1 (Homo sapiens, UniProt Q00535); assay: Inhibition of CDK5/p35 (unknown origin); assay type: protein-complex assay
T1 sequence (Q00535 whole entry): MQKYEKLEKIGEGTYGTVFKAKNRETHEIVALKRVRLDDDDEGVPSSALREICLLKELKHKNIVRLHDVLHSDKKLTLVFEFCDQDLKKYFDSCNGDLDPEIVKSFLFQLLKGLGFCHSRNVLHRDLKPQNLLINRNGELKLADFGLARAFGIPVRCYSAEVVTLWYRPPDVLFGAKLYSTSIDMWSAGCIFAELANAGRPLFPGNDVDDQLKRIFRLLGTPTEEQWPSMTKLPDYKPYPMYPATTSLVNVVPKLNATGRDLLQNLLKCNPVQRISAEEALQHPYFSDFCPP
T1 sequence (Q15078 whole entry, further chain): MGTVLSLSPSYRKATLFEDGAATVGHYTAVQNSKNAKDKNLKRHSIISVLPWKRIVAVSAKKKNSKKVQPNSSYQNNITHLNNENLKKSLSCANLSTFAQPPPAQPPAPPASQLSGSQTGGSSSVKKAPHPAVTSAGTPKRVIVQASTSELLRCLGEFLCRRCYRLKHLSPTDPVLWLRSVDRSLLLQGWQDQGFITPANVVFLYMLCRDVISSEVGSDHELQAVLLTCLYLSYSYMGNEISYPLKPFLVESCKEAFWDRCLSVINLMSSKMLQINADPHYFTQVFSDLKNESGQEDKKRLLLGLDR

[3] = molecular target: Cyclin-dependent kinase 1/cyclin B1 (Homo sapiens, UniProt P06493); assay: Inhibition of CDK1/cyclinB (unknown origin); assay type: protein-complex assay
Cyclin-dependent kinase 1/cyclin B1, sequence (P06493 whole entry): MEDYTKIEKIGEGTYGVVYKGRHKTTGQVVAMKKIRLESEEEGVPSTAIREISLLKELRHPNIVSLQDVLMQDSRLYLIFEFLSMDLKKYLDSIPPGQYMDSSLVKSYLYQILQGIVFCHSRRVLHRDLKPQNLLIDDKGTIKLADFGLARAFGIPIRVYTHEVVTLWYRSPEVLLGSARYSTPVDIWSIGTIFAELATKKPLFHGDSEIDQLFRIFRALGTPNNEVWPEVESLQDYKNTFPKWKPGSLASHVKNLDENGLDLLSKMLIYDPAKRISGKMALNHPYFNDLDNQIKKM
Cyclin-dependent kinase 1/cyclin B1, sequence (P14635 whole entry, further chain): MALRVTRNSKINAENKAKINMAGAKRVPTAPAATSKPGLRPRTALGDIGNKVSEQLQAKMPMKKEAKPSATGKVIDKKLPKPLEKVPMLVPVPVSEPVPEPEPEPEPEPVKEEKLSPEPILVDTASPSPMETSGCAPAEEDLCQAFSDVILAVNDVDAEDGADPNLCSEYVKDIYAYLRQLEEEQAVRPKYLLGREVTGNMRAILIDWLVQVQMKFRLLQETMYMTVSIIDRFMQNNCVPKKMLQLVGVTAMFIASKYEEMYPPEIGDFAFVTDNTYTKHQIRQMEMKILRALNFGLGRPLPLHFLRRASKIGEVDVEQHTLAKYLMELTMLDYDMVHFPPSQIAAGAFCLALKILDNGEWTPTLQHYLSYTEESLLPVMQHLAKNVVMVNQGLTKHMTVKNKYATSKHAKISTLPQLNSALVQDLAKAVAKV

CDK7/Cyclin H/MNAT1 = CDK7/Cyclin H/MNAT1 (Homo sapiens, UniProt P50613); assay: Inhibition of CDK7/cyclinH/MAT1 (unknown origin); assay type: protein-complex assay
CDK7/Cyclin H/MNAT1, sequence (P51946 whole entry): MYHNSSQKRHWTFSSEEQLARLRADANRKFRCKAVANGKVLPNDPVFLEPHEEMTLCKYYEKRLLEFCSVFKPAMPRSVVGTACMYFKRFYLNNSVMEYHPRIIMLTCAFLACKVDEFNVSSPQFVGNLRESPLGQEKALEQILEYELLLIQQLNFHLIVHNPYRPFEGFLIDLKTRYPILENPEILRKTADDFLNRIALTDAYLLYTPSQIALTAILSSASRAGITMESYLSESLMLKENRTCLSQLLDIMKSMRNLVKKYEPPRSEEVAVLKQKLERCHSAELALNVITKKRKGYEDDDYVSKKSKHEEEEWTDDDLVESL
CDK7/Cyclin H/MNAT1, sequence (P50613 whole entry): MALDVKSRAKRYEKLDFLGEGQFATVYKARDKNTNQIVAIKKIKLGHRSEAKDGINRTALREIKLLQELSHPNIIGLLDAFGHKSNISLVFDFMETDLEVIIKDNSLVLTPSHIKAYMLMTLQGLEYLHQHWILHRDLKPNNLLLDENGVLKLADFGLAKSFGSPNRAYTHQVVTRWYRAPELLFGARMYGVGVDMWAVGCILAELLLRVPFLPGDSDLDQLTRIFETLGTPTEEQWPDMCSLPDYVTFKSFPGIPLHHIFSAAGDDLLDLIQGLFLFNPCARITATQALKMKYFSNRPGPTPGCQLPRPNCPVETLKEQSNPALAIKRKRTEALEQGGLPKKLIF
CDK7/Cyclin H/MNAT1, sequence (P51948 whole entry, further chain): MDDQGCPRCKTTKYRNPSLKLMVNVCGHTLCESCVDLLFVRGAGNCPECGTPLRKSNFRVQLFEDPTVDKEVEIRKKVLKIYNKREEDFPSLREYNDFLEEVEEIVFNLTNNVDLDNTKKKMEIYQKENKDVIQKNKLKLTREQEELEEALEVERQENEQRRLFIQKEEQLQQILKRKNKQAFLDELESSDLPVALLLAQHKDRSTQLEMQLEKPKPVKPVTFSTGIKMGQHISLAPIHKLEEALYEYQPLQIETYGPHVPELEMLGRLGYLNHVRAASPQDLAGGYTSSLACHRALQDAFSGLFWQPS

[4] = molecular target: Cyclin-dependent kinase 4/cyclin D1 (Homo sapiens, UniProt P11802); assay: Inhibition of CDK4/cyclinD (unknown origin); assay type: protein-complex assay
Cyclin-dependent kinase 4/cyclin D1, sequence (P11802 whole entry): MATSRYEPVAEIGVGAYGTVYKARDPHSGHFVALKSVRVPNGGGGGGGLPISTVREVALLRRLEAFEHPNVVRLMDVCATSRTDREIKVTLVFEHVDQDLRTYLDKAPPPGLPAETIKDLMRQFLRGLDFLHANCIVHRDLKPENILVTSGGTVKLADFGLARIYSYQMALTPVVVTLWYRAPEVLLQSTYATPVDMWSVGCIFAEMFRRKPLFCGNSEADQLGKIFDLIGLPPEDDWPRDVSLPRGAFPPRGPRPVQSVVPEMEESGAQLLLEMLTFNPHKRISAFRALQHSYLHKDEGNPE
Cyclin-dependent kinase 4/cyclin D1, sequence (P24385 whole entry, further chain): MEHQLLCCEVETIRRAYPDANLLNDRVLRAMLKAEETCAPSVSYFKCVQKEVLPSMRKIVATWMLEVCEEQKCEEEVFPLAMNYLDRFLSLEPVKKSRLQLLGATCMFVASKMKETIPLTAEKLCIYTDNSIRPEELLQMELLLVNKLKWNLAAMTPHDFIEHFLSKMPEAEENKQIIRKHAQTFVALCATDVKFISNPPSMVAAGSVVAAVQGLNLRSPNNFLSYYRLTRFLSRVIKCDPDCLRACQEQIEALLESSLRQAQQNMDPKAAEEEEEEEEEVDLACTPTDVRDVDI

[5] = molecular target: T1, Cyclin-dependent kinase 5/CDK5 activator 1; assay: Inhibition of CDK5/p25 (unknown origin); assay type: protein-complex assay
CDK2/Cyclin A2 = CDK2/Cyclin A2 (Homo sapiens, UniProt P24941); assay: Inhibition of CDK2/cyclinA (unknown origin); assay type: protein-complex assay
Homo sapiens = organism: Homo sapiens; assay: Selectivity index, ratio of IC50 for inhibition of CDK4/cyclinD (unknown origin) to IC50 for inhibition of CDK9/cyclinT1 (unknown origin)
[6] = molecular target: Cyclin-dependent kinase 2/cyclin E1 (Homo sapiens, UniProt P24941); assay: Inhibition of CDK2/cyclinE (unknown origin); assay type: protein-complex assay

CDK3/Cyclin E, sequence (P24864 whole entry): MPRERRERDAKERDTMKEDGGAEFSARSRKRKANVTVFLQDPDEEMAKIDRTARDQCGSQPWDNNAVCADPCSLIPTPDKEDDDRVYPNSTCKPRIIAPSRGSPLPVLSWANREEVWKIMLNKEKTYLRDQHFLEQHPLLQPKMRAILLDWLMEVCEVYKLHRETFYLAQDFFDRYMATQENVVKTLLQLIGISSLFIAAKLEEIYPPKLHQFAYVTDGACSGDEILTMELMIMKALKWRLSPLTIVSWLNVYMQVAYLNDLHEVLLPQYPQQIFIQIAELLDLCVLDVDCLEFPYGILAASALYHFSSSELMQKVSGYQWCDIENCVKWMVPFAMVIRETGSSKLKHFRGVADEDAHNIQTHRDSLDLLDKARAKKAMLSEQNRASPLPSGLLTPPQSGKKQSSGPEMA
CDK3/Cyclin E, sequence (Q00526 whole entry): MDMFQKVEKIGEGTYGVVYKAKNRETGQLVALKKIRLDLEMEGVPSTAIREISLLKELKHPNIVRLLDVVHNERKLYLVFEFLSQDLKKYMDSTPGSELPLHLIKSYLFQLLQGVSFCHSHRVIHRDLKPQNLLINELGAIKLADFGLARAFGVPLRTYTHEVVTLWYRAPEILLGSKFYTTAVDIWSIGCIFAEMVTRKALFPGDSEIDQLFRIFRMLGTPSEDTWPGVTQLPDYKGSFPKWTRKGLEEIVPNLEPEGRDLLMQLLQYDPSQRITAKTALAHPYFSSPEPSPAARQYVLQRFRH

Nc1nc(N[C@H]2C[C@@H]3CC[C@H]2C3)sc1C(=O)c1ccccc1[N+](=O)[O-]
IC50 (CDK3/Cyclin E): 399 nM
IC50 [1]: 712 nM
IC50 (CDK9/cyclin T1): 5 nM
IC50 [2]: 159 nM
IC50 [3]: 138 nM
IC50 (CDK7/Cyclin H/MNAT1): 555 nM
IC50 [4]: 112 nM
IC50 [5]: 186 nM
IC50 (CDK2/Cyclin A2): 233 nM
Ratio IC50 (Homo sapiens): 22.5
IC50 [6]: 367 nM
